Reference: the OPERA property sets (Mansouri et al. 2018)
Values after ≈ are worked out from the molar mass of the structure shown. Where a SMILES comes first, the peptide text is derived from it.

Settings: not given

SMILES | logP
Nc1cc([N+](=O)[O-])ccc1Cl | 2.23
S=C=Nc1ccc(Cl)cc1 | 3.91
CC(C)N(C(=O)COc1nnc(C(F)(F)F)s1)c1ccc(F)cc1 | 3.2
Clc1cc(Cl)cc(O[Si]23OCCN(CCO2)CCO3)c1 | 1.22
OCCC(F)(F)C(F)(F)C(F)(F)C(F)(F)C(F)(F)C(F)(F)F | 4.54
c1ccc2cc3cc4c(ccc5ccccc54)cc3cc2c1 | 6.81
N=C(N)NN=Cc1ccccc1[N+](=O)[O-] | 0.53
N#Cc1cc(I)c(O)c(I)c1 | 3.43

Further lines, results first:

logP | SMILES
1.65 | NC(=S)Nc1cccc2ccccc12
1.7 | COc1nc(C)nc(=NC(O)=NS(=O)(=O)c2ccccc2C(=O)O)[nH]1
0 | CCCCNC(=O)CCC(NS(=O)(=O)c1ccc(C)cc1)C(=O)O (stereo not given)
1.92 | CCCCOCCOCCOCCCC
4.1 | CCCCN(C)C(=O)Nc1ccc(Cl)c(Cl)c1
2.4 | O=C(OCc1ccccc1)c1cccnc1
2.24 | CN(C(=O)C(Cl)Cl)c1ccc(OC(=O)c2ccco2)cc1
4.88 | Cc1cccc(Nc2ccccc2C(=O)O)c1
3.94 | CCCC(=O)Oc1c(Br)cc(C#N)cc1Br
-1.38 | CCCCCCCC(=O)[O-].[Na+]
-1.13 | CC(=O)N[C@@H](C)C(=O)N[C@H](C(N)=O)C(C)C (Ac-Ala-Val-NH2)

Same assay, conditions: 20 °C

SMILES | solubility [mM]
CNC(=N)N | 24.4 (≈ 1.78 mg/mL)
CC(C)COC(=O)C(C)C | 5.24 (≈ 0.755 mg/mL)
ClC(Br)Br | 12.5 (≈ 2.6 mg/mL)

Same assay, conditions: 22 °C

SMILES | solubility [mM]
CN(C)C(=O)Nc1cccc(C(F)(F)F)c1 | 0.366 (≈ 0.085 mg/mL)
CC(C)Nc1nc(Cl)nc(NC2CC2)n1 | 0.303 (≈ 0.069 mg/mL)

Same assay, conditions: 23 °C

solubility [mM] | SMILES
0.0697 (≈ 0.0095 mg/mL) | CC1=CCC(=C(C)C)CC1

Same assay, conditions: 23.0 °C

SMILES | log10 OH rate constant (cm³/molecule/s)
c1ccc2c(c1)OCCO2 | -10.6
CC1=CCCC(C)=CCC(C)(C)C=CC1 | -9.54

Other lines, results leading:

log10 OH rate constant (cm³/molecule/s) | SMILES
-10.3 | C=C1C2CCC(C2)C1(C)C (stereo not given)
-11 | CC(=O)C(C)O (stereo not given)

Same assay, conditions: 24 °C

solubility [mM] | SMILES
1.33 (≈ 0.249 mg/mL) | COc1cc(C=O)cc(Cl)c1O

Same assay, conditions: 25 °C

SMILES | solubility [mM]
Nc1ccn([C@H]2CC[C@@H](CO)O2)c(=O)n1 | 362 (≈ 76.4 mg/mL)
Clc1cc(Cl)c(-c2ccccc2Cl)cc1Cl | 5.62e-05 (≈ 1.64e-05 mg/mL)
CCCCCO[N+](=O)[O-] | 2.7 (≈ 0.36 mg/mL)
CCCCCCO[N+](=O)[O-] | 0.747 (≈ 0.11 mg/mL)
Cc1ccc2c(ccc3ccccc32)c1 | 0.00146 (≈ 0.00028 mg/mL)
C[Se]C | 224 (≈ 24.4 mg/mL)
O=[N+]([O-])c1ccc2c3c(cccc13)CC2 | 0.00457 (≈ 0.00091 mg/mL)
Oc1ccccc1Cl | 87.9 (≈ 11.3 mg/mL)
O=CC=Cc1ccccc1 | 10.7 (≈ 1.42 mg/mL)
O=C(O)CBr | 12600 (≈ 1750 mg/mL)
ClC(Cl)=C(Cl)C(Cl)(Cl)Cl | 0.0684 (≈ 0.017 mg/mL)
CCCCOC(=O)c1ccccc1C(=O)OCc1ccccc1 | 0.00861 (≈ 0.00269 mg/mL)
O=NN(c1ccccc1)c1ccccc1 | 0.177 (≈ 0.035 mg/mL)
Clc1cccc2cccc(Cl)c12 | 0.0016 (≈ 0.000315 mg/mL)
O=P(Oc1ccccc1)(Oc1ccccc1)Oc1ccccc1 | 0.00582 (≈ 0.0019 mg/mL)
FCCl | 151 (≈ 10.4 mg/mL)
CCC(Cl)(Cl)Cl | 12.9 (≈ 1.9 mg/mL)
CNC(=O)O/N=C/C(C)(C)S(C)=O (stereo not given) | 136 (≈ 28 mg/mL)
C[Si](C)(C)O[Si](C)(C)O[Si](C)(C)O[Si](C)(C)C | 2.17e-05 (≈ 6.74e-06 mg/mL)
C=CCCCCCCCC | 0.00406 (≈ 0.00057 mg/mL)
ClC1=C(Cl)C2(Cl)C3C(Cl)C=CC3C1(Cl)C2(Cl)Cl (stereo not given) | 0.000482 (≈ 0.00018 mg/mL)
Nc1ccccc1Cl | 64 (≈ 8.16 mg/mL)
O=C(O)c1cccc(C(=O)O)n1 | 29.9 (≈ 5 mg/mL)
c1ccc2c(c1)ccc1c3ccccc3ccc21 | 8.76e-06 (≈ 2e-06 mg/mL)
O=C(Oc1ccccc1)c1ccccc1C(=O)Oc1ccccc1 | 0.000258 (≈ 8.2e-05 mg/mL)
CN(C)C(=O)Nc1ccc(Cl)c(Cl)c1 | 0.18 (≈ 0.042 mg/mL)
COC | 7660 (≈ 353 mg/mL)
CSc1ccccc1 | 4.07 (≈ 0.506 mg/mL)
O=[N+]([O-])c1ccccc1 | 17 (≈ 2.09 mg/mL)
CC(C)(C)c1ccc(O)c(O)c1 | 12 (≈ 2 mg/mL)

Same assay, conditions: 25.0 °C

SMILES | log10 OH rate constant (cm³/molecule/s)
C[Se]C | -10.2
FC(F)(F)CBr | -13.7
CC(F)(Cl)Cl | -14.2
O=CC(F)(F)F | -12.2
FC(F)(F)C(Cl)Br (stereo not given) | -13.3
O=CC(F)(F)Cl | -12.1
FCC(F)(F)C(F)F | -14
ClC(Cl)C(Cl)Cl | -12.6
FC(Cl)C(F)(F)Cl (stereo not given) | -13.9
NCC(F)(F)F | -12
FC(F)(F)CCC(F)(F)F | -14.1

The remaining lines, values ahead:

log10 OH rate constant (cm³/molecule/s) | SMILES
-9.65 | CC1=CCC(=C(C)C)CC1
-11.4 | CCCCCCCl
-12.4 | CC(C)(C)Cl
-10.6 | COCCOC
-11.3 | CCCC(C)=O
-10.7 | CC(C)OCCO
-10.2 | CCOCCOCC

Same assay, conditions: 30 °C

SMILES | solubility [mM]
Nc1ccc([N+](=O)[O-])cc1 | 5.27 (≈ 0.728 mg/mL)

Same assay, conditions: pH 7.4

logD | SMILES
2.38 | COc1c(C)c2c(c(O)c1C/C=C(\C)CCC(=O)OCCN1CCOCC1)C(=O)OC2
